The source of these data is patent publication US20230167101A1, “NOVEL INHIBITORS OF HISTONE […] P300/CBP FOR CANCER THERAPY” (BAYLOR COLLEGE OF MEDICINE, priority 2020, published 2023).

In general, IC50 refers to the concentration at which inhibition is half-maximal.

The target of one assay is T1, HAT domain of human p300 (Homo sapiens, UniProt Q09472).
T1 construct: The HAT domain (1195-1673) of human p300 was cloned, inserted into pGEX-KG vector; made in house; host or cells: E. coli BL21-CodonPlus
T1 sequence (Q09472 1195-1673): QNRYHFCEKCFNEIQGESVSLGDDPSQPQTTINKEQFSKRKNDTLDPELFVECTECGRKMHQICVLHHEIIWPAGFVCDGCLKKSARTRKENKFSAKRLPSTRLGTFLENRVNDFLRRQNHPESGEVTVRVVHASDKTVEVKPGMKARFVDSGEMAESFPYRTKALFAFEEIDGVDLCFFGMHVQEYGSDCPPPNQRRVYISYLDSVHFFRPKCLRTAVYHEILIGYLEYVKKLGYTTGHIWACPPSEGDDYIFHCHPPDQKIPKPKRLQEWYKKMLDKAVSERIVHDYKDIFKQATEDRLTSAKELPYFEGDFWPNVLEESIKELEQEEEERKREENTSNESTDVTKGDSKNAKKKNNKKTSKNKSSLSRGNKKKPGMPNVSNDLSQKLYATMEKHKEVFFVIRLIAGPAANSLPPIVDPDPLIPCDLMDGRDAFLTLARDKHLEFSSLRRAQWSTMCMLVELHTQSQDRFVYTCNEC
Kind of assay: p300 HAT inhibition assay (3H-Ac-CoA, histone H3 (1-21) peptide). In kind it is biochemical.
Conditions: not given
As for the experimental part: A biochemical assay to determine the activity and inhibition of recombinant HAT domain of human p300 was developed, using the substrate histone H3 (1-21) peptide and the ^3H-labeled cofactor Ac—CoA.
The HAT domain (1195-1673) of human p300 was cloned, inserted into pGEX-KG vector and the DNA sequence was verified by sequencing. The p300-HAT expression plasmid was transformed into E. coli BL21-CodonPlus strain (Agilent) and cultured at 37° C. in LB medium containing ampicillin (50 µg/mL) and chloramphenicol (34 µg/mL). After the optical density of the bacterial culture reached ~0.9 at 600 nm, p300 HAT expression was induced by adding 300 µM isopropylthiogalactoside (IPTG) at 18° C. for 48 hours. Cells were collected, lysed, centrifuged for 20 min at 20,000 rpm. The supernatant was subjected to column chromatography with glutathione sepharose resins. […] CBP, PCAF and Myst3 HATs were obtained using similar methods.
To determine inhibitory activity, a compound with concentrations ranging from 100 nM to 10 µM was incubated with p300-HAT (10 nM) in 20 µL of 50 mM phosphate buffer (pH = 7.0) containing 0.01% Brij-35 for 10 min at 25° C. […] After 30 min at 25° C., the reaction was stopped by adding 6 N formic acid (5 µL). 20 µL of reaction mixture was then transferred to a small piece of P81 filter paper (Whatman) that binds histone H3 peptide. The filter paper was washed 3x with 50 mM NaHCO3, dried, and transferred into a scintillation vial containing 2 mL of scintillation cocktail. Radioactivity on the filter paper was measured with a Beckman LS-6500 scintillation counter. IC50 values were obtained by using a standard sigmoidal dose response curve fitting in Prism (version 5.0, GraphPad Software, Inc., La Jolla, CA). IC50 values were the mean values from at least three experiments.
In the case of `CC(C)(C)c1ccc(-c2cc(COCC3CCNCC3)sc2-c2ccc(C(C)(C)C)cc2)cc1` [Compound 13], the “inhibitory activity against p300 HAT (in words)” value is on record as “complete loss of inhibitory activity”.

As to `CCCCc1ccc(-c2cc(CNCC3CCNCC3)sc2-c2ccc(CCCC)cc2)cc1` [Compound 23], the “inhibitory activity against p300 HAT (in words)” value is on record as “Loss of activity”.

Still in this assay, the particulars now being: p300 HAT.
For `CC(C)(C)c1ccc(-c2cc(CNCCC3CCNCC3)sc2-c2ccc(C(C)(C)C)cc2)cc1` [Compound 15], the “activity reduction relative to compound 12” value is listed as about 3 fold.

As to `CC(C)c1ccc(-c2cc(CNCC3CCNCC3)sc2-c2ccc(C(C)C)cc2)cc1` [Compound 22], the “activity reduction relative to compound 12” value was ~ 8 x.

The same assay, now with this note: read-out: IC50 against p300 HAT.
For `CC(C)(C)c1ccc(-c2cc(C(=O)NCC3CCNCC3)sc2-c2ccc(C(C)(C)C)cc2)cc1` [Compound 1], the IC50 is 8.6 µM.

On to `c1cc(-c2ccc(-c3cc(CNCC4CCNCC4)sc3-c3ccc(-c4ccoc4)cc3)cc2)co1` [Compound 11], for which the 50% inhibitory concentration (IC50) worked out at 1.7 µM.

On to `CC(C)(C)c1ccc(-c2cc(CNCCC3CCNCC3)sc2-c2ccc(C(C)(C)C)cc2)cc1` [Compound 15], for which the IC50 worked out at 2.2 µM.

`CC(C)(C)c1ccc(-c2cc(CNCCCN)sc2-c2ccc(C(C)(C)C)cc2)cc1` [Compound 16]: the IC50 was determined as 3 µM.

As to `CN(Cc1cc(-c2ccc(C(C)(C)C)cc2)c(-c2ccc(C(C)(C)C)cc2)s1)CC1CCNCC1` [Compound 20], the IC50 worked out at 4.4 µM.

Consider `CC(C)(C)c1ccc(-c2cc(CN(C=O)CC3CCNCC3)sc2-c2ccc(C(C)(C)C)cc2)cc1` [Compound 21], for which the IC50 was 7 µM.

On to `CC(C)c1ccc(-c2cc(CNCC3CCNCC3)sc2-c2ccc(C(C)C)cc2)cc1` [Compound 22], for which the IC50 stood at 5.4 µM.

As for `CC(C)(C)c1ccc(-c2cc(CNCC3CCNCC3)oc2-c2ccc(C(C)(C)C)cc2)cc1` [Compound 34], the IC50 was found to be 9.8 µM.

The next assay relates to Kasumi-1 leukemia cells. Description: Cellular histone acetylation, Western blot. It is filed as cell-based. As to conditions: Kasumi-1 cells, 12 h, 5 and 10 µM. As for the experimental part: Kasumi-1 leukemia cells were treated with increasing concentrations of these compounds for 12 h. Histone was extracted and subjected to electrophoresis separation and Western blot staining to determine levels of acetylation at various lysine residues. […] H3K27 seems to be the most sensitive cellular substrate of p300 HAT. […] This might be due to different mode of inhibition or cell permeability for the two compounds.
About 10^6 Kasumi-1 cells per well were incubated with compound 11 at 0, 5 and 10 µM for 12 hours. Histone proteins were extracted using EpiQuik total histone extraction kit (Epigentek), according to the manufacturer’s protocol. Equal amounts of histones (2 µg) were separated on SDS-PAGE and transferred to PVDF membranes. The blots were probed with primary antibodies against H3K9Ac, H3K18Ac, H3K27Ac and H3 (Cell Signaling), followed by anti-rabbit IgG (Thermo Scientific) secondary antibodies.
Turning to `CC1=NN(c2ccc(C(=O)O)cc2)C(=O)/C1=C\c1ccc(-c2cc(C)c(C)cc2[N+](=O)[O-])o1` [Compound C646, reference compound], the “cellular acetylation of histone H3K9, H3K18 and H3K27” value is “inhibited”.
